Laboratory results published in PMC6019362, “^99mTc标记T7肽及其在裸鼠非小细胞肺癌模型体内的生物分布研究” (Chinese Journal of Lung Cancer, 2014).

Assays:
[1] = assay type: in vitro ADME, human
Procedure: 薄层色谱法检测标记率及放化纯度，以硅胶板为固定相，丙酮作为展开系统，毛细管点样，放射性γ计数器进行检测。稳定性检测:取500 μL的^99mTc-T7溶液分别加入1 mL的生理盐水和1 mL人血清中，37 ℃孵育8 h，用薄层色谱法检测放化纯度。

荷人NCI-H157裸鼠肺癌模型 = test system: 荷人NCI-H157裸鼠肺癌模型; parameters: species or system BALB/c裸鼠; settings: in vivo
Procedure: 将NCI-H157细胞株培养至对数生长期，弃去培养液，PBS清洗2次，0.25%胰酶消化，收集细胞，离心，生理盐水重悬并计数。无菌条件下，每只裸鼠右后肢背部皮下注射6×10^6个/200 μL的NCI-H157细胞悬液。裸鼠置于天津市实验动物中心SPF级动物房饲养，当肿瘤长径达0.6 cm-1.0 cm时进行实验(约30 d)。 将荷瘤裸鼠随机分成5组(0.5 h、1 h、2 h、4 h和8 h)，每组5只，分别尾静脉注射3.7 MBq/100 μL的^99mTc-T7溶液，注射后分别在0.5 h、1 h、2 h、4 h和8 h股动脉放血处死，分别取心、肝、脾、肺、肾、肌肉、骨骼、脑、肿瘤、小肠、胃，称湿重，测量γ计数，计算各脏器的每克组织注射剂量百分比(%ID/g)并分析肿瘤/非肿瘤(T/NT)比值。

- 放化纯 (radiochemical purity) after incubation [1]: > 90%
- 肿瘤/肌肉放射性比值 (T/NT) (荷人NCI-H157裸鼠肺癌模型): > 5
- 血脑屏障通过 (blood-brain barrier passage) (荷人NCI-H157裸鼠肺癌模型): 不能正常通过血脑屏障
- 8 h血放射性摄取值 (%ID/g) 相对于0.5 h (荷人NCI-H157裸鼠肺癌模型; mouse, iv, 3.7 MBq, 8 h): 26%
Sequence: TMPFLFCNVNDVCNFASRNDYSKKK [^99mTc-T7, 羰基锝法标记的肿瘤抑素T7肽, ^99mTc(CO)3^+ labelled 25-mer, integrin αvβ3 targeted imaging probe]
